Key:
[1] = molecular target: T1, BRD4 Bromo Domain 2 [BRD4(2)] (Homo sapiens, UniProt O60885); test: BRD4(2)/acetylated peptide H4 binding assay (TR-FRET); details: inhibition of interaction between His6-tagged BRD4(2) (amino acids 357-445) and acetylated histone H4 peptide
T1 construct: N-terminally His6-tagged BRD4(2) (amino acids 357-445); made in house; host or cells: E. coli
Source text: Protein-Protein Interaction Assay: BRD4/Acetylated Peptide H4 Binding Assay
2. Assay Description for BRD4 Bromo Domain 2 [BRD4(2)]
To assess the BRD4(2) binding strength of the substances described in this application, the ability thereof to inhibit the interaction between BRD4(2) and acetylated histone H4 in a dose-dependent manner was quantified.
For this purpose, a time-resolved fluorescence resonance energy transfer (TR-FRET) assay was used, which measures the binding between N-terminally His6-tagged BRD4(2) (amino acids 357-445) and a synthetic acetylated histone H4 (Ac-H4) peptide with sequence SGRGK(Ac)GGK(Ac)GLGK(Ac)GGAK(Ac)RHRKVLRDNGSGSK-biotin. The recombinant BRD4(2) protein produced in house according to Filippakopoulos et al., Cell, 2012, 149:214-231 was expressed in E. coli and purified by means of (Ni-NTA) affinity and (Sephadex G-75) size exclusion chromatography. The Ac-H4 peptide can be purchased, for example, from Biosyntan (Berlin, Germany).
In the assay, typically 11 different concentrations of each substance (0.1 nM, 0.33 nM, 1.1 nM, 3.8 nM, 13 nM, 44 nM, 0.15 μM, 0.51 μM, 1.7 μM, 5.9 μM and 20 μM) were analysed as duplicates on the same microtitre plate. For this purpose, 100-fold concentrated solutions in DMSO were prepared by serial dilutions (1:3.4) of a 2 mM stock solution into a clear, 384-well microtitre plate (Greiner Bio-One, Frickenhausen, Germany). From this, 50 nl were transferred into a black test plate (Greiner Bio-One, Frickenhausen, Germany). The test was started by the addition of 2 μl of a 2.5-fold concentrated BRD4(2) solution (final concentration typically 100 nM in the 5 μl of reaction volume) in aqueous assay buffer [50 mM HEPES pH 7.5, 50 mM sodium chloride (NaCl); 50 mM potassium fluoride (KF); 0.25 mM CHAPS and 0.05% serum albumin (BSA)] to the substances in the test plate. This was followed by a 10-minute incubation step at 22° C. for the pre-equilibration of putative complexes between BRD4(2) and the substances.
The mixture was then incubated in the dark at 22° C. for one hour and then at 4° C. for at least 3 hours and for no longer than overnight. The formation of BRD4(2)/Ac-H4 complexes was determined by the measurement of the resonance energy transfer from the streptavidin-Eu chelate to the anti-6His-XL665 antibody present in the reaction. For this purpose, the fluorescence emission was measured at 620 nm and 665 nm after excitation at 330-350 nm in a TR-FRET measuring instrument, for example a Rubystar or Pherastar (both from BMG Lab Technologies, Offenburg, Germany) or a Viewlux (Perkin-Elmer). The ratio of the emissions at 665 nm and at 622 nm was taken as an indicator of the amount of BRD4(2)/Ac-H4 complexes formed.
The data (ratios) obtained were normalized, with 0% inhibition corresponding to the mean from the measurements for a set of controls (typically 32 data points) in which all the reagents were present. In these, in place of test substances, 50 nl of DMSO (100%) were used Inhibition of 100% corresponded to the mean from the measurements for a set of controls (typically 32 data points) in which all the reagents except BRD4(2) were present. The IC50 was determined by regression analysis based on a 4-parameter equation (minimum, maximum, IC50, Hill; Y=max+(min−max)/(1+(X/IC50)Hill)).

B16F10 cells = test: B16F10 cell proliferation assay (alamarBlue); assay type: cell-based; details: B16-F10; inhibition of cell proliferation, 96 hours, mouse melanoma cell line
Method in brief: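 Mouse B16F10 melanoma cells (300-500/well, DMEM, 10% FCS) treated with compound at 1E-5 to 1E-8 M for 96 h at 37° C. alamarBlue fluorescence (ex 530/em 590 nm) before and after treatment; the difference compared to buffer-treated cells gives IC50 for proliferation inhibition.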

Row | IC50 [1] [nM] | IC50 (B16F10 cells) [nM] | Structure (SMILES)
1 | 148 | 600 | C[C@@H]1C(=O)N(C)c2ccc(Nc3ccc(S(=O)(=O)N(C)C)cc3)cc2N1C1CCOCC1 [Example 46, 4-{[(3R)-1,3-dimethyl-2-oxo-4-(tetrahydro-2H-pyran-4-yl)-1,2,3,4-tetrahydroquinoxalin-6-yl]amino}-N,N-dimethylbenzenesulphonamide]
2 | 134 | 423 | C[C@@H]1C(=O)N(C)c2ccc(Nc3ccc(S(=O)(=O)N4CCOCC4)cc3)cc2N1C1CCOCC1 [Example 47, (3R)-1,3-dimethyl-6-{[4-(morpholin-4-ylsulphonyl)phenyl]amino}-4-(tetrahydro-2H-pyran-4-yl)-3,4-dihydroquinoxalin-2(1H)-one]
3 | 112 | 1450 | C[C@@H]1C(=O)N(C)c2ccc(Nc3ccc(S(=O)(=O)N4CCN(C)CC4)cc3)cc2N1C1CCOCC1 [Example 48, (3R)-1,3-dimethyl-6-({4-[(4-methylpiperazin-1-yl)sulphonyl]phenyl}amino)-4-(tetrahydro-2H-pyran-4-yl)-3,4-dihydroquinoxalin-2(1H)-one]

Second part, the compound before the results:

Row | Structure (SMILES) | IC50 [1] [nM] | IC50 (B16F10 cells) [nM]
4 | COc1ccc(CN2c3cc(Nc4ccc(S(=O)(=O)N5CCOCC5)cc4)ccc3N(C)C(=O)[C@H]2C)cc1 [Example 42, (3R)-4-(4-methoxybenzyl)-1,3-dimethyl-6-{[4-(morpholin-4-ylsulphonyl)phenyl]amino}-3,4-dihydroquinoxalin-2(1H)-one] | 68 | 79
5 | COc1ccc(CN2c3cc(Nc4ccc(S(=O)(=O)N5CCN(C)CC5)cc4)ccc3N(C)C(=O)[C@H]2C)cc1 [Example 43, (3R)-4-(4-methoxybenzyl)-1,3-dimethyl-6-({4-[(4-methylpiperazin-1-yl)sulphonyl]phenyl}amino)-3,4-dihydroquinoxalin-2(1H)-one] | 54 | 212
6 | COc1ccc(CN2c3cc(Nc4ccc(S(=O)(=O)N5CCN(C(C)C)CC5)cc4)ccc3N(C)C(=O)[C@H]2C)cc1 [Example 44, (3R)-4-(4-methoxybenzyl)-1,3-dimethyl-6-[(4-{[4-(propan-2-yl)piperazin-1-yl]sulphonyl}phenyl)amino]-3,4-dihydroquinoxalin-2(1H)-one] | 73 | 460
7 | C[C@@H]1C(=O)N(C)c2ccc(Nc3ccc(S(=O)(=O)N(C)C)cc3)cc2N1C1CCCCCC1 [Example 45, 4-{[(3R)-4-cycloheptyl-1,3-dimethyl-2-oxo-1,2,3,4-tetrahydroquinoxalin-6-yl]amino}-N,N-dimethylbenzenesulphonamide] | 83 | 1570

— US20150344444A1, “BET-PROTEIN-INHIBITING DIHYDROXYQUINOXALINONES” (BAYER PHARMA AKTIENGESELLSCHAFT, priority 2012, published 2015)
